Experiments:
[1] = molecular target: T1, CFTR in F508del/F508del primary CF hBE cells (Homo sapiens, UniProt P13569, DEL508-508); assay: Ussing chamber electrophysiology assay of CFTR potentiation in F508del/F508del CF bronchial epithelial cells (27° C.); type: cell-based
T1 construct: Primary cystic fibrosis human bronchial epithelial (CF hBE) cells were expanded and cultured; endogenous in cells; host or cells: primary CF human bronchial epithelial cells, genotype F508del/F508del
In short: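 Well-differentiated primary CF hBE cells (>30 days air/liquid interface) in Ussing chambers, HEPES saline both sides, voltage clamped to zero. Amiloride 30 uM, forskolin 10 uM, four rising compound concentrations, then CFTRinh-172 20 uM added at 20-25 min intervals. Short-circuit current scaled to DMSO (0%) and a positive control potentiator maximum (100%).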

[2] = molecular target: T2, recombinant F508del V470 CFTR in Fischer rat thyroid (FRT) cells (Homo sapiens, UniProt P13569, DEL508-508); assay: FRT ion flux assay of F508del CFTR potentiation; type: cell-based; details: FRT cells expressing F508del V470 CFTR, forskolin 20 uM, 27° C. pre-incubation
T2 construct: expressed in transfected cells
T2 sequence (P13569 with tags, fused parts or gaps DEL508-508): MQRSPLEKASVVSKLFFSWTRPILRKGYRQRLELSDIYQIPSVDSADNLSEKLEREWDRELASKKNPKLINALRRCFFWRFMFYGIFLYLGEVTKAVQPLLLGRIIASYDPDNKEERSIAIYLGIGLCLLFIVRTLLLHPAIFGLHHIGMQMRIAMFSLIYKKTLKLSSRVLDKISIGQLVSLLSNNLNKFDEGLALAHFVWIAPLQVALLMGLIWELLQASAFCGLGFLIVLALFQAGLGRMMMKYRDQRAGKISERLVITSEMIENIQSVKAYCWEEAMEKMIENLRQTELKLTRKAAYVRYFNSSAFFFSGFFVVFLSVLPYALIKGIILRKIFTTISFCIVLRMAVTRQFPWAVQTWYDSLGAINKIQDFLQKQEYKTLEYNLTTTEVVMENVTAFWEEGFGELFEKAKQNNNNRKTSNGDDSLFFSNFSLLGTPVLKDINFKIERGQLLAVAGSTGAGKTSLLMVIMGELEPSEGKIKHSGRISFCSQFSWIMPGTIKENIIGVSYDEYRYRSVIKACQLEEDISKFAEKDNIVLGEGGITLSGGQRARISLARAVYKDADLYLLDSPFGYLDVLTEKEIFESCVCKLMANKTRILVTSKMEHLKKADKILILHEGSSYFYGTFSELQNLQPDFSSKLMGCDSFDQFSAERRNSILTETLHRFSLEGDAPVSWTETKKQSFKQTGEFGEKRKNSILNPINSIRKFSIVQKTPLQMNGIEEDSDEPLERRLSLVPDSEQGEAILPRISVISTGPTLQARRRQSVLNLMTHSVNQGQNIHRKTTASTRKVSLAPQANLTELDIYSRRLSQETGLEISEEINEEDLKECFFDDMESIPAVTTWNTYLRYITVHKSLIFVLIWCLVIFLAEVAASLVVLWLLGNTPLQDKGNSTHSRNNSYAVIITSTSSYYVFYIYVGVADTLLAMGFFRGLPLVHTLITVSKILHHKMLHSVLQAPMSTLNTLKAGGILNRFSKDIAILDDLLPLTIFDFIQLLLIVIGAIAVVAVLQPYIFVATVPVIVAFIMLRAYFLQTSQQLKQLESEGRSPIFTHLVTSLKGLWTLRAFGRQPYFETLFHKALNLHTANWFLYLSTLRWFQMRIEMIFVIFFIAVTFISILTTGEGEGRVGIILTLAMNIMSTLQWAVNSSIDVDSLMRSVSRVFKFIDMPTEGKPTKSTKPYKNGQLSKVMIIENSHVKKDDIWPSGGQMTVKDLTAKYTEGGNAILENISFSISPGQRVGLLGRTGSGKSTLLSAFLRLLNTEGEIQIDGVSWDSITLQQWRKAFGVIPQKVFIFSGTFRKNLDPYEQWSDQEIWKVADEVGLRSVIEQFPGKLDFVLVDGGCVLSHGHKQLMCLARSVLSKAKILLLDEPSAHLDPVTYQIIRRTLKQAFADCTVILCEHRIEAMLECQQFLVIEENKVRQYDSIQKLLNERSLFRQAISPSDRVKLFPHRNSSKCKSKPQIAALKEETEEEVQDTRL
In short: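 FRT cells co-expressing F508del V470 CFTR and halide-sensitive YFP, temperature-corrected at 27° C for 16-24 h, then treated 30 min with compound plus 20 uM forskolin. Iodide addition quenches YFP, read after ~21 s; ratio scaled to DMSO (0%) and positive control potentiator (100%).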

T1 sequence (P13569 with tags, fused parts or gaps DEL508-508): as above

For `Nc1ncnc2c1c(-c1cnco1)cn2Cc1cn(-c2ccccc2F)nn1` [Example 197, 7-{[1-(2-Fluorophenyl)-1H-1,2,3-triazol-4-yl]methyl}-5-(1,3-oxazol-5-yl)-7H-pyrrolo[2,3-d]pyrimidin-4-amine], the EC50 [1] was 0.811 µM and the EC50 [2] was 0.254 µM.

`Nc1ncnc2c1c(C1CCCO1)cn2Cc1cn(-c2ccccc2F)nn1` (centres unmarked) [Example 198, 7-{[1-(2-Fluorophenyl)-1H-1,2,3-triazol-4-yl]methyl}-5-(tetrahydrofuran-2-yl)-7H-pyrrolo[2,3-d]pyrimidin-4-amine] was tested, and the EC50 [1] was 2.12 µM and the EC50 [2] was greater than 25 µM.

In the case of `COc1ncncc1-c1cn(Cc2cn(-c3ccccc3F)nn2)c2ncnc(N)c12` [Example 200, 7-{[1-(2-Fluorophenyl)-1H-1,2,3-triazol-4-yl]methyl}-5-(4-methoxypyrimidin-5-yl)-7H-pyrrolo[2,3-d]pyrimidin-4-amine], the EC50 [1] is reported as 0.478 µM and the EC50 [2] is reported as 0.1 µM.

`COc1ncccc1-c1cn(Cc2cn(-c3ccccc3F)nn2)c2nc(C)nc(N)c12` [Example 202, 7-{[1-(2-Fluorophenyl)-1H-1,2,3-triazol-4-yl]methyl}-5-(2-methoxypyridin-3-yl)-2-methyl-7H-pyrrolo[2,3-d]pyrimidin-4-amine] showed an EC50 [1] of 0.798 µM and an EC50 [2] of 0.922 µM.

In the case of `COc1ncncc1-c1cn(Cc2cn(-c3ccccc3F)nn2)c2nc(C)nc(N)c12` [Example 203, 7-{[1-(2-fluorophenyl)-1H-1,2,3-triazol-4-yl]methyl}-5-(4-methoxypyrimidin-5-yl)-2-methyl-7H-pyrrolo[2,3-d]pyrimidin-4-amine], the EC50 [1] is reported as 2.53 µM and the EC50 [2] is reported as 1.61 µM.

With `COc1nc(C(F)(F)F)ccc1-c1cn(Cc2cn(-c3ccccc3F)nn2)c2ncnc(N)c12` [Example 206, 7-{[1-(2-fluorophenyl)-1H-1,2,3-triazol-4-yl]methyl}-5-[2-methoxy-6-(trifluoromethyl)pyridin-3-yl]-7H-pyrrolo[2,3-d]pyrimidin-4-amine] the EC50 [1] was 0.0108 µM and the EC50 [2] was 0.0229 µM.

`COc1cccnc1-c1cn(Cc2cn(-c3ccccc3F)nn2)c2ncnc(N)c12` [Example 207, 7-{[1-(2-fluorophenyl)-1H-1,2,3-triazol-4-yl]methyl}-5-(3-methoxypyridin-2-yl)-7H-pyrrolo[2,3-d]pyrimidin-4-amine] gave an EC50 [1] of 0.238 µM and an EC50 [2] of 0.226 µM.

Work on `Cc1cccc(-n2cc(C(C)n3cc(-c4ccc(Cl)cc4)c4c(N)ncnc43)nn2)c1` (centres unmarked) [Example 208, 5-(4-Chlorophenyl)-7-{1-[1-(3-methylphenyl)-1H-1,2,3-triazol-4-yl]ethyl}-7H-pyrrolo[2,3-d]pyrimidin-4-amine] yielded an EC50 [1] of 0.055 µM and an EC50 [2] of 0.404 µM.

For `Cc1nc(N)c2c(-c3ccc(Cl)cc3)cn(C(C)c3cn(-c4ccccc4F)nn3)c2n1` (centres unmarked) [Example 209, 5-(4-Chlorophenyl)-7-{1-[1-(2-fluorophenyl)-1H-1,2,3-triazol-4-yl]ethyl}-2-methyl-7H-pyrrolo[2,3-d]pyrimidin-4-amine], the EC50 [1] was 0.295 µM and the EC50 [2] was 0.343 µM.

In the case of `COc1ncccc1-c1cn(Cc2cn(-c3ccccc3F)nn2)c2ncnc(N)c12` [Example 210, 7-{[1-(2-Fluorophenyl)-1H-1,2,3-triazol-4-yl]methyl}-5-(2-methoxy-pyridin-3-yl)-7H-pyrrolo[2,3-d]pyrimidin-4-amine], the EC50 [1] is reported as 0.158 µM and the EC50 [2] is reported as 0.123 µM.

`CCC(c1cn(-c2ccccc2F)nn1)n1cc(-c2ccc(Cl)cc2)c2c(N)ncnc21` (centres unmarked) [Example 211, 5-(4-Chlorophenyl)-7-{1-[1-(2-fluorophenyl)-1H-1,2,3-triazol-4-yl]propyl}-7H-pyrrolo[2,3-d]pyrimidin-4-amine] was tested, and the EC50 [1] was 0.0259 µM and the EC50 [2] was 0.109 µM.

In the case of `CC(c1cn(-c2ccccc2F)nn1)n1cc(-c2ccc(OC3CC3)cc2)c2c(N)ncnc21` (centres unmarked) [Example 212, 5-[4-(Cyclopropyloxy)phenyl]-7-{1-[1-(2-fluorophenyl)-1H-1,2,3-triazol-4-yl]ethyl}-7H-pyrrolo[2,3-d]pyrimidin-4-amine], the EC50 [1] is reported as 0.0122 µM and the EC50 [2] is reported as 0.0682 µM.

Work on `CC(c1cn(-c2ccccc2F)nn1)n1cc(-c2ccc(OC3CC3)nc2)c2c(N)ncnc21` (centres unmarked) [Example 213, 5-[6-(Cyclopropyloxy)pyridin-3-yl]-7-{1-[1-(2-fluorophenyl)-1H-1,2,3-triazol-4-yl]ethyl}-7H-pyrrolo[2,3-d]pyrimidin-4-amine] yielded an EC50 [1] of 0.0231 µM and an EC50 [2] of 0.0586 µM.

`CC(c1cn(-c2ncccc2F)nn1)n1cc(-c2ccc(OC3CC3)cc2)c2c(N)ncnc21` (centres unmarked) [Example 214, 5-[4-(Cyclopropoxy)phenyl]-7-{1-[1-(3-fluoropyridin-2-yl)-1H-1,2,3-triazol-4-yl]ethyl}-7H-pyrrolo[2,3-d]pyrimidin-4-amine] was tested, and the EC50 [1] was 0.0396 µM and the EC50 [2] was 0.0906 µM.

`COc1ncccc1-c1cn(C(C)c2cn(-c3ccccc3F)nn2)c2ncnc(N)c12` (centres unmarked) [Example 215, 7-{1-[1-(2-Fluorophenyl)-1H-1,2,3-triazol-4-yl]ethyl}-5-(2-methoxypyridin-3-yl)-7H-pyrrolo [2,3-d]pyrimidin-4-amine] showed an EC50 [1] of 0.184 µM and an EC50 [2] of 0.0793 µM.

`CC(c1cn(-c2ccccc2F)nn1)n1cc(-c2cnc(C(F)(F)F)nc2)c2c(N)ncnc21` (centres unmarked) [Example 216, 7-{1-[1-(2-Fluorophenyl)-1H-1,2,3-triazol-4-yl]ethyl}-5-[2-(trifluoromethyl)pyrimidin-5-yl]-7H-pyrrolo[2,3-d]pyrimidin-4-amine] gave an EC50 [1] of 0.0588 µM and an EC50 [2] of 0.0252 µM.

Work on `CCC(c1cn(-c2ccccc2F)nn1)n1cc(-c2cc(F)cnc2OC)c2c(N)ncnc21` (centres unmarked) [Example 223, 7-{1-[1-(2-Fluorophenyl)-1H-1,2,3-triazol-4-yl]propyl}-5-(5-fluoro-2-methoxypyridin-3-yl)-7H-pyrrolo[2,3-d]pyrimidin-4-amine] yielded an EC50 [1] of 0.00723 µM and an EC50 [2] of 0.0111 µM.

In the case of `CCC(c1cn(-c2ccccc2F)nn1)n1cc(-c2cnc(C(F)(F)F)nc2)c2c(N)ncnc21` (centres unmarked) [Example 224, 7-{1-[1-(2-Fluorophenyl)-1H-1,2,3-triazol-4-yl]propyl}-5-[2-(trifluoromethyl)pyrimidin-5-yl]-7H-pyrrolo[2,3-d] pyrimidin-4-amine], the EC50 [1] is reported as 0.019 µM and the EC50 [2] is reported as 0.00904 µM.

`CCC(c1cn(-c2ccccc2F)nn1)n1cc(-c2cnco2)c2c(N)ncnc21` (centres unmarked) [Example 225, 7-{1-[1-(2-Fluorophenyl)-1H-1,2,3-triazol-4-yl]propyl}-5-(1,3-oxazol-5-yl)-7H-pyrrolo[2,3-d]pyrimidin-4-amine] showed an EC50 [1] of 0.0932 µM and an EC50 [2] of 0.0373 µM.

In the case of `CCC(c1cn(-c2ccccc2F)nn1)n1cc(C2CC2)c2c(N)ncnc21` (centres unmarked) [Example 236, 5-cyclopropyl-7-{1-[1-(2-fluorophenyl)-1H-1,2,3-triazol-4-yl]propyl}-7H-pyrrolo[2,3-d]pyrimidin-4-amine], the EC50 [1] is reported as 0.0388 µM and the EC50 [2] is reported as 0.056 µM.

Work on `CC(c1cn(-c2ccccc2F)nn1)n1cc(C2CC2)c2c(N)ncnc21` (centres unmarked) [Example 238, 5-Cyclopropyl-7-{1-[1-(2-fluorophenyl)-1H-1,2,3-triazol-4-yl]ethyl}-7H-pyrrolo[2,3-d]pyrimidin-4-amine] yielded an EC50 [1] of 0.133 µM and an EC50 [2] of 0.0606 µM.

`CC(c1cn(-c2ccccc2F)nn1)n1cc(-c2ccc(C#N)c(F)c2)c2c(N)ncnc21` (centres unmarked) [Example 239, 4-(4-Amino-7-{1-[1-(2-fluorophenyl)-1H-1,2,3-triazol-4-yl)ethyl]-7H-pyrrolo[2,3-d]pyrimidin-5-yl}-2-fluorobenzonitrile] was tested, and the EC50 [1] was 0.083 µM and the EC50 [2] was 0.0944 µM.

— patent US12612409B2, “Pyrrolopyrimidines as CFTR potentiators” (Cystic Fibrosis Foundation, priority 2016, dated 2026)
